The results in this text go back to patent US5747545A, “Method of preventing NMDA receptor complex-mediated Neuronal damage” (priority 1995, dated 1998).

Data set [1] can be described thus: Development of tolerance to systemic effects of NTG in humans. Type of data set: in vivo, human. The text has this: Therefore, it is advantageous to induce NTG tolerance by gradually increasing dosage, thus increasing the neuronal protective effect.
To illustrate the development of systemic tolerance, a human patient could be made tolerant by intravenous administration of NTG within 18-24 hr of continuous infusion (see for example, J. E. Shaffer, B. -A. Han, W. H. Chern, and F. W. Lee, J. Pharmacol. Exper. Therap., 1992;260:286-293; D. C. May, J. J. Popma, Wh. H. Black, S. Scahaffer, H. R. Lee, B. D. Levine, and L. D. Hillis, New Engl. J. Med. 1987;317:805-809; C. M. Newman, J. B. Warren, G. W. Taylor, A. R. Boobis, and D. S. Davis, Br. J. Pharmacol. 1990;99:825-829). Oral, nasal spray, or sublingual NTG could also be used to induce systemic tolerance.
Another, perhaps easier, method for making humans tolerant within 24 hours to the systemic effects of NTG is to administer nitroglycerin as nitropaste or as a transdermal patch for transdermal delivery, for instance, as follows: 1/2inch every 4 to 6 hours, while monitoring the blood pressure (to see when hypotension subsides from the applied nitropaste). As tolerated (e.g., in the absence of sudden drops in blood pressure), the dose of nitropaste is increased to up to 3 inches with each administration. Under these conditions, tolerance (as evidenced by no effect on systemic blood pressure) will develop in 18-24 hours or less. […]

For data set [2], the system named is cerebral cortical infarct (rat pups). Kind of data set: Bilateral carotid ligation plus hypoxia stroke model in rat pups pretreated with NTG patches. Type of data set: in vivo. Here is the method:
Rat pups were treated with nitroglycerin (NTG) approximately for 36-48 hours before performing bilateral carotid ligations. The dosing regimen for the 3 groups of rat pups used to generate the data was as follows.
Hair was removed from the abdominal region of the rat pup using a razor. One-quarter of a NTG patch (Minitran) was applied to the shaved area. A quarter patch of this size corresponds to a dose of 0.6 mg/24 hours (whole patch 2.4 mg/24 hr). Between 12 and 16 hours later, another quarter-patch was applied to the rat's abdomen, leaving the first on. This procedure was again repeated 12-16 hours later. Each rat pup received 3 or 4 quarter patches before surgery, which was performed two days later and consisted of bilateral carotid ligation followed by hypoxia to induce a stroke.
Using this procedure of inducing NTG systemic tolerance, the following results were obtained: In the control group, 7/11 (64%) of the animals suffered large ([…]) cerebral cortical infarcts. In contrast, in the NTG-treated group, only 2/13 (15%) of the animals had any discernible cerebral infarct at all (P<0.03 by Fisher's exact test).
Animals are operated on (to induce a stroke) approximately 48 hr after the initial administration of NTG patches.

As to `O=[N+]([O-])OCC(CO[N+](=O)[O-])O[N+](=O)[O-]` [NTG, 1,2,3-propanetriol trinitrate], the “Time to systemic tolerance, nitropaste or transdermal patch” value in data set [1] (no effect on systemic blood pressure, nitropaste dose escalated up to 3 inches, "will develop in 18-24 hours or less") fell in the range of 18 to 24 h. In addition, in data set [1] (systemic effects e.g. blood pressure drop, coronary artery dilation or headache), the “Tolerance to undesired systemic effects” value is listed as “patients can be made tolerant to the undesired systemic effects of NTG”. Also, the “Animals with any discernible cerebral infarct (number/total)” value in data set [2] (NTG patches approx. 36-48 h before bilateral carotid ligation, control 7/11 (64%) large infarcts, P<0.03 Fisher's exact test) was 2/13. In addition, the “Animals with any discernible cerebral infarct (percent)” value in data set [2] (NTG patches approx. 36-48 h before bilateral carotid ligation, control 64%, P<0.03) is given as 15%. In data set [2] (NTG transdermal patches, tolerance-inducing procedure), the Cerebral protection result is reported as “cerebral protective”.
